Assay results reported in paper PMC4703368, “A Conserved Interaction between a C-Terminal Motif in Norovirus VPg and the HEAT-1 Domain of eIF4G Is Essential for Translation Initiation” (PLoS Pathogens, 2016).

Tests used:
His-eIF4GI HEAT-1 [1] = assay: cobalt affinity pull-down, GST-VPg C-terminal fusions as prey (Fig 4B-E); type: binding, human; settings: for % binding (relative to WT) / Bait/Prey / Prey/Bait: Figure 4E; for % binding (relative to WT): ImageJ quantification; for Bait/Prey / Prey/Bait: band density ratio, ImageJ; for binding to His-eIF4GI HEAT-1 in cobalt pull-down: bait 2.6 µM, GST-VPg fusions 1.5 µM; for binding to His-eIF4GI HEAT-1 in cobalt pull-down / binding to His-eIF4GI HEAT-1, % of wild-type: 25 mM MES, 150 mM NaCl, pH 6.5; for binding to His-eIF4GI HEAT-1, % of wild-type: quantification of pull-down, Fig 4E
His-eIF4GI HEAT-1 [2] = assay: cobalt affinity pull-down, SDS PAGE band quantification; settings: parent: est. 100; read off a plot
[3] = test system: His-tagged MNV VPg(1–124); assay: cobalt affinity pull-down, eIF4GI HEAT-1 mutants as prey (Fig 5D-E)

| Substance | % binding (relative to WT) (His-eIF4GI HEAT-1 [1]; repeat 1, 2014-07-24) [%] | Bait/Prey (His-eIF4GI HEAT-1 [1]; repeat 1, 2014-07-24) | Prey/Bait (His-eIF4GI HEAT-1 [1]; repeat 1, 2014-07-24) | % binding (relative to WT) (His-eIF4GI HEAT-1 [1]; repeat 2, 2014-07-25) [%] | Bait/Prey (His-eIF4GI HEAT-1 [1]; repeat 2, 2014-07-25) | Prey/Bait (His-eIF4GI HEAT-1 [1]; repeat 2, 2014-07-25) | % binding (relative to WT) (His-eIF4GI HEAT-1 [1]; repeat 3, 2014-07-25) [%] | Bait/Prey (His-eIF4GI HEAT-1 [1]; repeat 3, 2014-07-25) | Prey/Bait (His-eIF4GI HEAT-1 [1]; repeat 3, 2014-07-25) | % binding (relative to WT) (His-eIF4GI HEAT-1 [1]; repeat 4, 2014-07-31) [%] | Bait/Prey (His-eIF4GI HEAT-1 [1]; repeat 4, 2014-07-31) | Prey/Bait (His-eIF4GI HEAT-1 [1]; repeat 4, 2014-07-31) | binding to His-eIF4GI HEAT-1 in cobalt pull-down (His-eIF4GI HEAT-1 [1]) | percent of parent (% of WT (normalised OD ratio)) (His-eIF4GI HEAT-1 [2]) | also measured |
| --- | --- | --- | --- | --- | --- | --- | --- | --- | --- | --- | --- | --- | --- | --- | --- |
| D110A | 71.5502 | 3.801 | 0.2631 | 69.0469 | 2.646 | 0.3779 | 77.4561 | 2.312 | 0.4326 | 83.3957 | 2.418 | 0.4136 | capable of binding eIF4GI HEAT-1 |  | binding to His-eIF4GI HEAT-1, % of wild-type (His-eIF4GI HEAT-1 [1]): 60–80% |
| GST-MNV VPg(102–124) F123A |  |  |  |  |  |  |  |  |  |  |  |  |  | 6 |  |
| R113A | 63.4705 | 4.285 | 0.2334 | 60.4116 | 3.025 | 0.3306 | 58.2069 | 3.0762 | 0.3251 | 76.2941 | 2.643 | 0.3784 | capable of binding eIF4GI HEAT-1 |  | binding to His-eIF4GI HEAT-1, % of wild-type (His-eIF4GI HEAT-1 [1]): 60–80% |
| K120A | 102.078 | 2.664 | 0.3754 | 80.9274 | 2.258 | 0.4429 | 85.5916 | 2.092 | 0.478 | 78.1139 | 2.581 | 0.3874 | appears to bind as effectively as the wild-type sequence |  | % binding (relative to WT) (His-eIF4GI HEAT-1 [1]; repeat 7, 2015-08-05): 78.74%; Bait/Prey (His-eIF4GI HEAT-1 [1]; repeat 7, 2015-08-05): 4.118; Prey/Bait (His-eIF4GI HEAT-1 [1]; repeat 7, 2015-08-05): 0.2428 |
| GST-MNV VPg(102–124) R113A |  |  |  |  |  |  |  |  |  |  |  |  |  | 64 |  |
| GST-MNV VPg(102–124) K120A |  |  |  |  |  |  |  |  |  |  |  |  |  | 90 |  |
| GST-MNV VPg(102–124) D110A |  |  |  |  |  |  |  |  |  |  |  |  |  | 75 |  |
| GST-MNV VPg(102–124) V115A |  |  |  |  |  |  |  |  |  |  |  |  |  | 3 |  |
| E913R |  |  |  |  |  |  |  |  |  |  |  |  |  |  | Relative density normalised to WT (%) ([3]; 150 mM NaCl, experiment 1): 72.7%; Relative density normalised to WT (%) ([3]; 150 mM NaCl, experiment 2): 89.6%; Relative density normalised to WT (%) ([3]; 150 mM NaCl, experiment 3): 82.8%; Relative density normalised to WT (%) ([3]; 300 mM NaCl, experiment 1): 49.0%; Relative density normalised to WT (%) ([3]; 300 mM NaCl, experiment 2): 56.0% |
